The results in this text go back to US6635652B1, “Azaindolizinone derivatives and cerebral function improvers containing the same as the active ingredient” (Zenyaku Kogyo Kabushiki Kaisha, priority 1999, dated 2003).

What is called melting point is the temperature of the solid-liquid transition.

SMILES strings stand for the structures. Marks after values point to notes of the source that are not given here.

The test system of series [1] is amnesia of rats induced by scopolamine. In words: Effects on scopolamine-induced amnesia (passive avoidance task, oral administration). It is filed as in vivo. The conditions noted are these: 60 min before retention trial, scopolamine hydrobromide 2 mg/kg i.p., passive avoidance latency, male Strague Dawley rats; for inhibition in vivo at 1 mg/kg / inhibition in vivo at 0.01 mg/kg: Rattus norvegicus, po, read-out: Inhibitory rate (%); for inhibition in vivo at 1 mg/kg: 1 mg/kg p.o.; for inhibition in vivo at 0.01 mg/kg / Inhibitory rate (%): 0.01 mg/kg p.o. An excerpt: Male rats of the Strague Dawley strain at 8 weeks of age (260±2 g body weight) were used for evaluation through passive avoidance task. The apparatus of passive avoidance task comprises illuminated and dark chambers which are separated from each other by a wall with a door. Floors are constituted by grids made of stainless steel; only the grid in the dark chamber is furnished with wiring for electrification.
Effected on the first and second days of testing was preparative training; each rat was placed in the illuminated chamber and left for 3 minutes to habituate to the apparatus. On the third day of testing, the rats were individually placed in the illuminated chamber and after entering the dark chamber, the door was closed and the floor grid was electrified to deliver electric shock (100 V, 0.4 mA, a period of 0.8 sec). In order to induce amnesia, scopolamine hydrobromide (2 mg/kg) was intraperitoneally injected 20 minutes before the electric shock was delivered. Retention in memory on the electric shock was tested 24 hours later; more specifically, retention in passive avoidance trial was measured in terms of a time interval (latency) from placement of each rat in the illuminated chamber to its entry into the dark chamber. The latency over 300 seconds was recorded as 300 seconds. Respective test compounds were suspended in an aqueous solution of 1% carboxymethyl cellulose and orally administered at a dose of 0.01 or 1 mg/kg 60 minutes before the trial.
Antiamnesic effects of the test compounds were evaluated by inhibitory rate (%) which is calculated by the following formula: [formula]
wherein T stands for latency and SC stands for administration of scopolamine hydrobromide. Experimental results are shown in the following table in which, as to each of the test compounds, only the dose showing higher inhibitory rate was indicated.

In the case of `CCCC1(CCC)C(=O)N=C2C=CC=CN21` [Compound 29, 3,3-Dipropylimidazo[1,2-a]pyridin-2(3H)-one], the melting point was 73 to 75 °C. In series [1], the inhibition in vivo at 1 mg/kg was determined as 115%. Taken in the same sequence, the figures for `O=C1N=C2C(OCC3CC3)=CC=CN2C1(Cc1ccccc1)Cc1ccccc1` [Compound 3, 3,3-Dibenzyl-8-cyclopropylmethyloxyimidazo[1,2-a]-pyridin-2(3H)-one] were 236 to 237 °C and 47.4%.

The molecule `O=C1N=C2C(O)=CC=CN2C1(Cc1ccccc1)Cc1ccccc1` [Compound 36, 3,3-Dibenzyl-8-hydroxyimidazo[1,2-a]pyridin-2(3H)-one] returned a melting point of 283 to 285 °C. Moreover, the inhibition in vivo at 0.01 mg/kg in series [1] is 30%.

Turning to `O=C1N=C2C(Cl)=CC(C(F)(F)F)=CN2C1(Cc1ccccc1)Cc1ccccc1` [Compound 13, 3,3-Dibenzyl-8-chloro-6-trifluoromethylimidazo[1,2-a]pyridin-2(3H)-one], the melting point was in the range of 234 to 236 °C. For the same molecule, the inhibition in vivo at 0.01 mg/kg in series [1] amounted to 57%. `O=C(O)c1ccc(CC2(Cc3ccc(C(=O)O)cc3)C(=O)N=C3C=CC=CN32)cc1` [Compound 40, 3,3-bis(4-Carboxybenzyl)imidazo[1,2-a]pyridin-2(3H)-one] had a melting point above 300 °C. In series [1], the inhibition in vivo at 1 mg/kg turned out to be 40.7%. For the molecule `O=C1N=C2C(Cl)=CC(Cl)=CN2C1(Cc1ccccc1)Cc1ccccc1` [Compound 12, 3,3-Dibenzyl-6,8-dichloroimidazo[1,2-a]pyridin-2(3H)-one], the melting point is 260 to 261 °C. Molecule `O=C1N=C2C(OC3CCCC3)=CC=CN2C1(Cc1ccccc1)Cc1ccccc1` [Compound 11, 3,3-Dibenzyl-8-cyclopentyloxyimidazo[1,2-a]pyridin-2(3H)-one] had a melting point of 268 to 269 °C. The inhibition in vivo at 1 mg/kg in series [1] amounted to 48%. On to `O=C1N=C2C=CC=CN2C1(Cc1ccc(O)cc1)Cc1ccc(O)cc1` [Compound 22, 3,3-bis(4-Hydroxybenzyl)imidazo[1,2-a]pyridin-2(3H)-one], for which the melting point fell in the range of 276.5 to 277.5 °C. Also, the inhibition in vivo at 0.01 mg/kg in series [1] turned out to be 37.4%. `O=C1N=C2C(OCc3ccccc3)=CC=CN2C1(Cc1ccccc1)Cc1ccccc1` [Compound 6, 3,3-Dibenzyl-8-benzyloxyimidazo[1,2-a]pyridin-2(3H)-one] gave a melting point of 240 to 241 °C. Besides, the inhibition in vivo at 0.01 mg/kg in series [1] worked out at 58.8%. As to `COC1=CC=CN2C1=NC(=O)C2(Cc1ccccc1)Cc1ccccc1` [Compound 2, 3,3-Dibenzyl-8-methoxyimidazo[1,2-a]pyridin-2(3H)-one], the melting point fell in the range of 274 to 275 °C. For the same molecule, in series [1], the inhibition in vivo at 1 mg/kg is 53%.

`CC(C)OC1=CC=CN2C1=NC(=O)C2(Cc1ccccc1)Cc1ccccc1` [Compound 1, 3,3-Dibenzyl-8-isopropoxyimidazo[1,2-a]-pyridin-2(3H)-one] had a melting point of 247 to 248 °C. For the same molecule, the inhibition in vivo at 1 mg/kg in series [1] came out at 50.4%.

For the molecule `N#Cc1ccc(CC2(Cc3ccc(C#N)cc3)C(=O)N=C3C=CC=CN32)cc1` [Compound 21, 3,3-bis(4-Cyanobenzyl)imidazo[1,2-a]pyridin-2(3H)-one], the melting point was 294 °C (dec.). Also, the inhibition in vivo at 0.01 mg/kg in series [1] came out at 58%. Turning to `O=C1N=C2C=CC=CN2C1(Cc1cccs1)Cc1cccs1` [Compound 30, 3,3-bis(2-Thienylmethyl)imidazo[1,2-a]pyridin-2(3H)-one], the melting point was 289.5 °C (dec.). Besides, in series [1], the inhibition in vivo at 0.01 mg/kg is 79.5%. `C=CCC1(CC=C)C(=O)N=C2C(OCc3ccccc3)=CC=CN21` [Compound 25, 3,3-Diallyl-8-benzyloxyimidazo[1,2-a]pyridin-2(3H)-one] showed a melting point of 160 to 162 °C. In turn, `O=C1N=C2C=CC(Cl)=CN2C1(Cc1ccccc1)Cc1ccccc1` [Compound 4, 3,3-Dibenzyl-6-chloroimidazo[1,2-a]pyridin-2(3H)-one] displayed a melting point of 246 to 248 °C. In addition, in series [1], the inhibition in vivo at 1 mg/kg stood at 58.5%. Molecule `CN(C)c1ccc(CC2(Cc3ccc(N(C)C)cc3)C(=O)N=C3C=CC=CN32)cc1` [Compound 17, 3,3-bis(4-Dimethylaminobenzyl)imidazo[1,2-a]pyridin-2(3H)-one] gave a melting point above 300 °C. In addition, the inhibition in vivo at 0.01 mg/kg in series [1] is 33.1%. As for `O=C1N=C2C=CC=CN2C12Cc1cccc3cccc(c13)C2` [Compound 27, Spiro[imidazo[1,2-a]pyridin-2(3H)-one-3,2′-[2,3]dihydrophenalene]], the “Inhibitory rate (%)” value in series [1] is 60.7* %. The molecule `CC(c1ccccc1)C1(C(C)c2ccccc2)C(=O)N=C2C(OCc3ccccc3)=CC=CN21` (stereo not drawn) [Compound 7, 8-Benzyloxy-3,3-bis(1-phenylethyl)imidazo[1,2-a]-pyridin-2(3H)-one] yielded a melting point of 234 to 235 °C. On to `O=C1N=C2C=CC=CN2C1(Cc1cccc(Cl)c1)Cc1cccc(Cl)c1` [Compound 18, 3,3-bis(3-Chlorobenzyl)imidazo[1,2-a]pyridin-2(3H)-one], for which the melting point lay within 271 to 272 °C. Besides, the inhibition in vivo at 1 mg/kg in series [1] was determined as 58.7%. On to `Cc1cccc(CC2(Cc3cccc(C)c3)C(=O)N=C3C(OCc4ccccc4)=CC=CN32)c1` [Compound 14, 8-Benzyloxy-3,3-bis(3-methylbenzyl)imidazo[1,2-a]pyridin-2(3H)-one], for which the melting point is 233 to 235 °C. The inhibition in vivo at 1 mg/kg in series [1] stood at 56.7%. For the molecule `O=C1N=C2C=CC=CN2C1(Cc1ccc(F)cc1F)Cc1ccc(F)cc1F` [Compound 28, 3,3-bis(2,4-Difluorobenzyl)imidazo[1,2-a]pyridin-2(3H)-one], the melting point was 269 to 271 °C. The inhibition in vivo at 0.01 mg/kg in series [1] stood at 62.7%. `CC1(C)C(=O)N=C2C=CC=CN21` [Compound 33, 3,3-Dimethylimidazo[1,2-a]pyridin-2(3H)-one] came in with a melting point of 200 to 202 °C.

With `O=C1N=C2C=CC=CN2C12Cc1ccccc1C2` [Compound 24, Spiro[imidazo[1,2-a]pyridin-2(3H)-one-3,2′-indan]], in series [1], the “Inhibitory rate (%)” value is 56.8** %. As to `CC1=CC=CN2C1=NC(=O)C2(Cc1ccncc1)Cc1ccncc1` [Compound 15, 8-Methyl-3,3-bis(4-pyridylmethyl)imidazo[1,2-a]-pyridin-2(3H)-one], the melting point is 228 to 230 °C.

As for `O=C1N=C2C=CC=CN2C1(Cc1ccc(-c2ccccc2)cc1)Cc1ccc(-c2ccccc2)cc1` [Compound 20, 3,3-bis(4-Biphenylmethyl)imidazo[1,2-a]pyridin-2(3H)-one], the “Inhibitory rate (%)” value in series [1] is recorded as 30.2* %.

For `Nc1c2c(nc3ccccc13)CCCC2` [Compound B, 9-amino-1,2,3,4-tetrahydro-acridine, reference compound], in series [1], the inhibition in vivo at 0.01 mg/kg was 24.1% and the inhibition in vivo at 1 mg/kg was 54.9%. For `COc1cc2c(cc1OC)C(=O)C(CC1CCN(Cc3ccccc3)CC1)C2` (racemic) [Compound C, (R,S)-1-benzyl-4-(5,6-dimethoxy-1-indanon-2-yl)-methylpiperidine, reference compound], in series [1], the inhibition in vivo at 0.01 mg/kg was 12.5% and the inhibition in vivo at 1 mg/kg was determined as 24.7%. For the molecule `O=C1N(c2ccccc2)c2ccccc2C1(Cc1ccncc1)Cc1ccncc1` [Compound A, 3,3-bis(4-pyridylmethyl)-1-phenylindolin-2-one, reference compound], in series [1], the inhibition in vivo at 0.01 mg/kg stood at 8.8% and the inhibition in vivo at 1 mg/kg came out at 20.9%.
